Numbered stars: 1 amine (or outer) side, 2 acyl side, 3 side chain; on linkers, the order of the positions; unused ones are H or OH. Peptide text beside a SMILES is read from it. * marks the point of attachment. C20 diacid = O=C(O)CCCCCCCCCCCCCCCCCCC(=O)*; C18 diacid = O=C(O)CCCCCCCCCCCCCCCCC(=O)*; γGlu = O=C(O)[C@H](CCC(=O)[*:2])N[*:1]
How the values were obtained:
[1] = biological target: T1, Amylin receptor AMY3; CALCR/RAMP3 (Homo sapiens, UniProt O60896+P30988); assay: Agonist activity at human amylin receptor expressed in BHK570 cells co-expressing RAMP3 assessed as increase in intracellular cAMP concentration incubated for 3 hrs in absence of albumin by CRE luciferase reporter gene assay; format: functional, cell-based
T1 sequence (P30988 whole entry): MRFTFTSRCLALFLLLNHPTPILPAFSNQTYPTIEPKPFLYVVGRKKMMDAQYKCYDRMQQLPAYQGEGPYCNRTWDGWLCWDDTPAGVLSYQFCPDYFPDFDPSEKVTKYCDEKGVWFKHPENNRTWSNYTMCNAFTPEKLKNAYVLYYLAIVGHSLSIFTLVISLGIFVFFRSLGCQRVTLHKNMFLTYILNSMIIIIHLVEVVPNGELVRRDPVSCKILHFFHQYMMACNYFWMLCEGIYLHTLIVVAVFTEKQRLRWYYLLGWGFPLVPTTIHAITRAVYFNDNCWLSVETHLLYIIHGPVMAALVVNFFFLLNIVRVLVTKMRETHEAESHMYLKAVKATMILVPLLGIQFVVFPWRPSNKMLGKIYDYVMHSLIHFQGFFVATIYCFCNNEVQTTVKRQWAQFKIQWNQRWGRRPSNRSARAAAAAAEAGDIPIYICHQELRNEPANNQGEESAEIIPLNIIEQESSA
T1 sequence (O60896 whole entry): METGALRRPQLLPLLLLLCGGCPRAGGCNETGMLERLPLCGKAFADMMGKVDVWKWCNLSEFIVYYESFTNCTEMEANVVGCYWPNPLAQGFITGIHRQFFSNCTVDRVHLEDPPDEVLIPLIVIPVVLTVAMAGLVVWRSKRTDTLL

Calcitonin receptor [2] = biological target: T2, Calcitonin receptor (Homo sapiens, UniProt P30988); assay: Agonist activity at human calcitonin receptor expressed in BHK570 cells assessed as increase in intracellular cAMP concentration incubated for 3 hrs in absence of albumin by CRE luciferase reporter gene assay; format: functional, cell-based
T2 sequence (P30988 whole entry): T1 sequence (P30988 whole entry)

[3] = Solubility in 100 mM glycylglycine buffer at pH 3.0 incubated for 18 hrs by UPLC analysis; format: physicochemical
[4] = Solubility in 100 mM glycylglycine buffer at pH 4.0 incubated for 18 hrs by UPLC analysis; format: physicochemical
[5] = Solubility in 100 mM bistrispropane buffer at pH 6.0 incubated for 18 hrs by UPLC analysis; format: physicochemical
[6] = Solubility in 100 mM glycylglycine buffer at pH 5.0 incubated for 18 hrs by UPLC analysis; format: physicochemical
[7] = Solubility in 100 mM bistrispropane buffer at pH 6.5 incubated for 18 hrs by UPLC analysis; format: physicochemical
[8] = Solubility in 100 mM bistrispropane buffer at pH 7.0 incubated for 18 hrs by UPLC analysis; format: physicochemical
[9] = Solubility in 100 mM bistrispropane buffer at pH 7.5 incubated for 18 hrs by UPLC analysis; format: physicochemical
[10] = Solubility in 100 mM bistrispropane buffer at pH 8.0 incubated for 18 hrs by UPLC analysis; format: physicochemical
Calcitonin receptor [11] = biological target: T2, Calcitonin receptor; assay: Agonist activity at human calcitonin receptor expressed in BHK570 cells assessed as increase in intracellular cAMP concentration incubated for 3 hrs in presence of 10% FBS by CRE luciferase reporter gene assay; format: functional, cell-based

EC50 [1] | EC50 (Calcitonin receptor [2]) | solubility at 18 h [3] | solubility at 18 h [4] | solubility at 18 h [5] | solubility at 18 h [6] | solubility at 18 h [7] | solubility at 18 h [8] | solubility at 18 h [9] | solubility at 18 h [10] | EC50 (Calcitonin receptor [11]) | SMILES
0.012 nM | 6 pM | ≥ 200 µM | ≥ 200 µM | ≥ 200 µM | ≥ 200 µM | ≥ 200 µM | ≥ 200 µM | ≥ 200 µM | ≥ 200 µM | – | CC(C)C[C@H](NC(=O)[C@H](CCC(=O)O)NC(=O)[C@H](Cc1cnc[nH]1)NC(=O)[C@H](CC(C)C)NC(=O)[C@H](CCC(=O)O)NC(=O)[C@H](C)NC(=O)[C@H](CO)NC(=O)[C@H](CC(C)C)NC(=O)[C@H](CCCNC(=N)N)NC(=O)CNC(=O)[C@H](CC(C)C)NC(=O)[C@@H](NC(=O)[C@H](C)NC(=O)[C@@H](NC(=O)[C@H](CO)NC(=O)[C@H](CC(C)C)NC(=O)[C@@H]1CCCN1C(=O)[C@@H]1CCCN1C(=O)[C@H](C)NC(=O)[C@H](CCC(=O)O)NC(=O)CCCCCCCCCCCCCCCCC(=O)O)[C@@H](C)O)C(C)C)C(=O)N[C@@H](C)C(=O)N[C@H](C(=O)N[C@@H](CC(C)C)C(=O)N1CCC[C@H]1C(=O)N[C@@H](CCCNC(=N)N)C(=O)N[C@H](C(=O)N[C@@H](CCC(=O)O)C(=O)N[C@H](C(=O)NCC(=O)N1CCC[C@H]1C(=O)N[C@@H](CCC(=O)O)C(=O)N[C@@H](CO)C(=O)N1CCC[C@H]1C(N)=O)[C@@H](C)O)[C@@H](C)O)[C@@H](C)O ({C18 diacid}-EAPPLSTAVLGRLSAELHELATLPRTETGPESP-NH2)
0.028 nM | 13 pM | ≥ 200 µM | ≥ 200 µM | ≥ 200 µM | ≥ 200 µM | ≥ 200 µM | ≥ 200 µM | ≥ 200 µM | ≥ 200 µM | – | CC(C)C[C@H](NC(=O)[C@H](C)NC(=O)[C@@H](NC(=O)[C@H](CO)NC(=O)[C@H](CC(C)C)NC(=O)[C@H](CCC(=O)O)NC(=O)[C@H](CO)NC(=O)[C@H](C)NC(=O)[C@H](CCC(=O)O)NC(=O)CCCCCCCCCCCCCCCCC(=O)O)[C@@H](C)O)C(=O)N[C@@H](CC(C)C)C(=O)NCC(=O)N[C@@H](CCCNC(=N)N)C(=O)N[C@@H](CC(C)C)C(=O)N[C@@H](CO)C(=O)N[C@@H](C)C(=O)N[C@@H](CCC(=O)O)C(=O)N[C@@H](CC(C)C)C(=O)N[C@@H](Cc1cnc[nH]1)C(=O)N[C@@H](CCC(=O)O)C(=O)N[C@@H](CC(C)C)C(=O)N[C@@H](C)C(=O)N[C@H](C(=O)N[C@@H](CC(C)C)C(=O)N1CCC[C@H]1C(=O)N[C@@H](CCCNC(=N)N)C(=O)N[C@H](C(=O)N[C@@H](CCC(=O)O)C(=O)N[C@H](C(=O)NCC(=O)N1CCC[C@H]1C(=O)N[C@@H](CCC(=O)O)C(=O)N[C@@H](CO)C(=O)N1CCC[C@H]1C(N)=O)[C@@H](C)O)[C@@H](C)O)[C@@H](C)O ({C18 diacid}-EASELSTALLGRLSAELHELATLPRTETGPESP-NH2)
0.016 nM | 8 pM | ≥ 200 µM | ≥ 200 µM | ≥ 200 µM | ≥ 200 µM | ≥ 200 µM | ≥ 200 µM | ≥ 200 µM | ≥ 200 µM | – | CC(C)C[C@H](NC(=O)[C@H](CCC(=O)O)NC(=O)[C@H](Cc1cnc[nH]1)NC(=O)[C@H](CC(C)C)NC(=O)[C@H](CCC(=O)O)NC(=O)[C@H](C)NC(=O)[C@H](CO)NC(=O)[C@H](CC(C)C)NC(=O)[C@H](CCCCN)NC(=O)CNC(=O)[C@H](CC(C)C)NC(=O)[C@@H](NC(=O)[C@H](C)NC(=O)[C@@H](NC(=O)[C@H](CO)NC(=O)[C@H](CC(C)C)NC(=O)[C@H](CCC(=O)O)NC(=O)[C@H](CO)NC(=O)[C@H](C)NC(=O)[C@H](CCC(=O)O)NC(=O)CCCCCCCCCCCCCCCCC(=O)O)[C@@H](C)O)C(C)C)C(=O)N[C@@H](C)C(=O)N[C@H](C(=O)N[C@@H](CC(C)C)C(=O)N1CCC[C@H]1C(=O)N[C@@H](CCCCN)C(=O)N[C@H](C(=O)N[C@@H](CCC(=O)O)C(=O)N[C@H](C(=O)NCC(=O)N1CCC[C@H]1C(=O)N[C@@H](CCC(=O)O)C(=O)N[C@@H](CO)C(=O)N1CCC[C@H]1C(N)=O)[C@@H](C)O)[C@@H](C)O)[C@@H](C)O ({C18 diacid}-EASELSTAVLGKLSAELHELATLPKTETGPESP-NH2)
0.033 nM | 27 pM | ≥ 200 µM | ≥ 200 µM | ≥ 200 µM | – | ≥ 200 µM | ≥ 200 µM | ≥ 200 µM | ≥ 200 µM | 0.03 nM | CC(C)C[C@H](NC(=O)[C@H](C)NC(=O)[C@H](C)NC(=O)[C@@H](NC(=O)[C@H](CO)NC(=O)[C@H](CC(C)C)NC(=O)[C@H](CCC(=O)O)NC(=O)[C@H](CO)NC(=O)[C@H](C)NC(=O)CC[C@H](NC(=O)CCCCCCCCCCCCCCCCCCC(=O)O)C(=O)O)[C@@H](C)O)C(=O)NCC(=O)N[C@@H](CCCNC(=N)N)C(=O)N[C@@H](CC(C)C)C(=O)N[C@@H](CO)C(=O)N[C@@H](C)C(=O)N[C@@H](CCC(=O)O)C(=O)N[C@@H](CC(C)C)C(=O)N[C@@H](Cc1cnc[nH]1)C(=O)N[C@@H](CCC(=O)O)C(=O)N[C@@H](CC(C)C)C(=O)N[C@@H](CO)C(=O)N[C@H](C(=O)N[C@@H](Cc1ccc(O)cc1)C(=O)N1CCC[C@H]1C(=O)N[C@@H](CCCNC(=N)N)C(=O)N[C@H](C(=O)N[C@@H](CCC(=O)O)C(=O)N[C@H](C(=O)NCC(=O)N[C@@H](CO)C(=O)NCC(=O)N[C@@H](CO)C(=O)N1CCC[C@H]1C(N)=O)[C@@H](C)O)[C@@H](C)O)[C@@H](C)O ({C20 diacid-γGlu}-ASELSTAALGRLSAELHELSTYPRTETGSGSP-NH2)
0.037 nM | – | ≥ 200 µM | – | ≥ 200 µM | – | ≥ 200 µM | ≥ 200 µM | ≥ 200 µM | ≥ 200 µM | 0.042 nM | CC(C)C[C@H](NC(=O)[C@H](CO)NC(=O)[C@H](C)NC(=O)[C@@H](NC(=O)[C@H](CO)NC(=O)[C@H](CC(C)C)NC(=O)[C@H](CCC(=O)O)NC(=O)[C@H](CO)NC(=O)[C@H](C)NC(=O)CC[C@H](NC(=O)CCCCCCCCCCCCCCCCCCC(=O)O)C(=O)O)[C@@H](C)O)C(=O)NCC(=O)N[C@@H](CCCNC(=N)N)C(=O)N[C@@H](CC(C)C)C(=O)N[C@@H](CO)C(=O)N[C@@H](C)C(=O)N[C@@H](CCC(=O)O)C(=O)N[C@@H](CC(C)C)C(=O)N[C@@H](Cc1cnc[nH]1)C(=O)N[C@@H](CCC(=O)O)C(=O)N[C@@H](CC(C)C)C(=O)N[C@@H](C)C(=O)N[C@H](C(=O)N[C@@H](Cc1ccc(O)cc1)C(=O)N1CCC[C@H]1C(=O)N[C@@H](CCCNC(=N)N)C(=O)N[C@H](C(=O)N[C@@H](CCC(=O)O)C(=O)N[C@H](C(=O)NCC(=O)N[C@@H](CO)C(=O)NCC(=O)N[C@@H](CO)C(=O)N[C@@H](Cc1ccc(O)cc1)C(N)=O)[C@@H](C)O)[C@@H](C)O)[C@@H](C)O ({C20 diacid-γGlu}-ASELSTASLGRLSAELHELATYPRTETGSGSY-NH2)

SMILES | EC50 [1] | EC50 (Calcitonin receptor [2]) | solubility at 18 h [3] | solubility at 18 h [4] | solubility at 18 h [5] | solubility at 18 h [6] | solubility at 18 h [7] | solubility at 18 h [8] | solubility at 18 h [9] | solubility at 18 h [10] | EC50 (Calcitonin receptor [11])
CC(C)C[C@H](NC(=O)[C@H](C)NC(=O)[C@@H](NC(=O)[C@H](CO)NC(=O)[C@H](CC(C)C)NC(=O)[C@H](CCC(=O)O)NC(=O)[C@H](CO)NC(=O)[C@H](C)NC(=O)[C@H](CCC(=O)O)NC(=O)CCCCCCCCCCCCCCCCC(=O)O)[C@@H](C)O)C(=O)N[C@@H](C)C(=O)NCC(=O)N[C@@H](CCCNC(=N)N)C(=O)N[C@@H](CC(C)C)C(=O)N[C@@H](CO)C(=O)N[C@@H](C)C(=O)N[C@@H](CCC(=O)O)C(=O)N[C@@H](CC(C)C)C(=O)N[C@@H](Cc1cnc[nH]1)C(=O)N[C@@H](CCC(=O)O)C(=O)N[C@@H](CC(C)C)C(=O)N[C@@H](C)C(=O)N[C@H](C(=O)N[C@@H](CC(C)C)C(=O)N1CCC[C@H]1C(=O)N[C@@H](CCCNC(=N)N)C(=O)N[C@H](C(=O)N[C@@H](CCC(=O)O)C(=O)N[C@H](C(=O)NCC(=O)N1CCC[C@H]1C(=O)N[C@@H](CCC(=O)O)C(=O)N[C@@H](CO)C(=O)N1CCC[C@H]1C(N)=O)[C@@H](C)O)[C@@H](C)O)[C@@H](C)O ({C18 diacid}-EASELSTALAGRLSAELHELATLPRTETGPESP-NH2) | 0.008 nM | 4 pM | ≥ 200 µM | ≥ 200 µM | ≥ 200 µM | ≥ 200 µM | ≥ 200 µM | ≥ 200 µM | ≥ 200 µM | ≥ 200 µM | –

— ChEMBL document CHEMBL4420076, “Amylin and calcitonin receptor agonist” (2017)
